Assay results as given in patent US10683269B2 (MISSION THERAPEUTICS LIMITED, priority 2016, dated 2020).

Target: T1, USP7 (Homo sapiens, UniProt Q93009)
T1 construct: The USP7 construct was PCR amplified and cloned into a pFLAG-CMV-6a vector (Sigma-Aldrich) with an N-terminal FLAG tag; made in house; host or cells: HEK293T
Assay: USP7 biochemical IC50 assay (fluorescence polarisation, TAMRA labelled peptide linked to ubiquitin via an iso-peptide bond)
Conditions: 30 min pre-incubation of enzyme and compound, read after 2 hr incubation at room temperature, read-out: IC50 range
Procedure, shortened: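 Fluorescence polarisation at 540 nm excitation/590 nm emission, read immediately and after 2 hr at room temperature, following addition of 50 nM TAMRA-labelled iso-peptide ubiquitin substrate.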

T1 sequence (Q93009 whole entry): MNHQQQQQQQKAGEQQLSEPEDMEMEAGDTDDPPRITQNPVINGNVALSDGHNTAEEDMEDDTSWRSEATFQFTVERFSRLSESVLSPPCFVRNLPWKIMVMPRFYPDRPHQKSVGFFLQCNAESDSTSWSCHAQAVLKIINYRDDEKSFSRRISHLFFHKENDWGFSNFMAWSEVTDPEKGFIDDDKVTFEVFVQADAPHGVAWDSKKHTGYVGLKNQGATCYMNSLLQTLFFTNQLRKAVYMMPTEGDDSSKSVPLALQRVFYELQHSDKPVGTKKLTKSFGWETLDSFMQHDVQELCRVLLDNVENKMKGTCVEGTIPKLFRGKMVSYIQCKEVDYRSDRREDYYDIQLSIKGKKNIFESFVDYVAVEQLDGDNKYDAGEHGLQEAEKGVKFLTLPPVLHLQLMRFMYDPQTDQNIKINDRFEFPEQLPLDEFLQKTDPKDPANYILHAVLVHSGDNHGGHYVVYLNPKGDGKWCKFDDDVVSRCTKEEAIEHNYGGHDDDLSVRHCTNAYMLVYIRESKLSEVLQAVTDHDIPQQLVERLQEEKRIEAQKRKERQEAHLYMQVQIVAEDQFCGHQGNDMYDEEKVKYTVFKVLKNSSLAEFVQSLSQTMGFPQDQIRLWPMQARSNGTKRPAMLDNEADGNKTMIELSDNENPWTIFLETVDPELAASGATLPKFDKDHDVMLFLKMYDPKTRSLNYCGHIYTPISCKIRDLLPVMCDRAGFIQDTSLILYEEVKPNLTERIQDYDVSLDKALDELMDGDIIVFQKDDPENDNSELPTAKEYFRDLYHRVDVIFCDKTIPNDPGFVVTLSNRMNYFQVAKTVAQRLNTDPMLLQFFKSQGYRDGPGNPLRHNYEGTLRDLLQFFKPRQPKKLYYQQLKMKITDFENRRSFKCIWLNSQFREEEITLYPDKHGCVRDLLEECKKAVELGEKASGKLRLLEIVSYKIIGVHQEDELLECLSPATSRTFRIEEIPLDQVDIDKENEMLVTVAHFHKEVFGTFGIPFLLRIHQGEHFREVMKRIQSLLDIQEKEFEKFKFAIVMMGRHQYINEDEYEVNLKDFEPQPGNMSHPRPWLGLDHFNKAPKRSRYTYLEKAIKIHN

Row | SMILES | IC50
1 | N#Cc1cc(-c2cn[nH]c2)ccc1-c1cccc2c1CN(C#N)C2 [Example 294, 4-(2-cyano-4-(1H-pyrazol-4-yl)phenyl)isoindoline-2-carbonitrile] | 1 to 10 µM
2 | CN1CCCC(CN(C)c2nc3c(c(N4CCc5cccnc5C4)n2)CN(C#N)C3)C1 (centres unmarked) [Example 295, 4-(5,8-dihydro-1,7-naphthyridin-7(6H)-yl)-2-(methyl((1-methylpiperidin-3-yl)methyl)amino)-5,7-dihydro-6H-pyrrolo[3,4-d]pyrimidine-6-carbonitrile] | 1 to 10 µM
3 | N#Cc1cc2c(c(-c3ccc(F)cc3C(N)=O)c1)CN(C#N)C2 [Example 296, 2-(2,6-dicyanoisoindolin-4-yl)-5-fluorobenzamide] | 1 to 10 µM
4 | N#Cc1cc(F)c(-c2cc(C#N)cc3c2CN(C#N)C3)c(C(N)=O)c1 [Example 297, 5-cyano-2-(2,6-dicyanoisoindolin-4-yl)-3-fluorobenzamide] | 1 to 10 µM
5 | N#Cc1ccc(N2CCOC2=O)cc1-c1cccc2c1CN(C#N)C2 [Example 298, 4-(2-cyano-5-(2-oxooxazolidin-3-yl)phenyl)isoindoline-2-carbonitrile] | 1 to 10 µM
6 | N#Cc1ccc(N2CCCC2=O)cc1-c1cccc2c1CN(C#N)C2 [Example 299, 4-(2-cyano-5-(2-oxopyrrolidin-1-yl)phenyl)isoindoline-2-carbonitrile] | 1 to 10 µM
7 | N#CN1Cc2ncnc(-c3cccc(N4CCNC4=O)c3)c2C1 [Example 300, 4-(3-(2-oxoimidazolidin-1-yl)phenyl)-5,7-dihydro-6H-pyrrolo[3,4-c]pyrimidine-6-carbonitrile] | 1 to 10 µM
8 | N#Cc1cc(F)c(-c2cccc3c2CN(C#N)C3)c(C(N)=O)c1 [Example 301, 5-cyano-2-(2-cyanoisoindolin-4-yl)-3-fluorobenzamide] | 1 to 10 µM
